Several values for one entry are separate records, joined by “and”; a condition that tells them apart may be missing. Equal entries are not always repeated.
Molecular target: Cytochrome P450 3A4 (Homo sapiens, UniProt P08684)
Assay: For testosterone hydroxylase activity the final microsomal protein concentration was 0.5 mg/mL, the substrate concentration was 50 uM and the LC-MS internal standard was D7-labeled 6beta -hydroxytestosterone.

Chain of Cytochrome P450 3A4 (P08684 whole entry): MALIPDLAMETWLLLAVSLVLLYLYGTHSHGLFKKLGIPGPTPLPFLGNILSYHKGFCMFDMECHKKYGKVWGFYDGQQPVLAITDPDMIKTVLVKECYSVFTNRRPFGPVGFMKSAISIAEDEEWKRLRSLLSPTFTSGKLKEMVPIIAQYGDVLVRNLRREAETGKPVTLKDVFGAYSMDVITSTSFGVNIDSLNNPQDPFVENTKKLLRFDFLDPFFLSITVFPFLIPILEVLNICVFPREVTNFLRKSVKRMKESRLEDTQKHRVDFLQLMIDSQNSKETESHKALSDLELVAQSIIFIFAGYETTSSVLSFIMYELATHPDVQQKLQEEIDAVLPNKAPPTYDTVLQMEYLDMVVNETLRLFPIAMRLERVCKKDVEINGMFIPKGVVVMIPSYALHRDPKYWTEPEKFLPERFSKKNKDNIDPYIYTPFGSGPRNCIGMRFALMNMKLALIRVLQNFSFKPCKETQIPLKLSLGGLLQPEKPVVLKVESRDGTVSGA

IC50: 150 nM and 340 nM
SMILES: CC(C)c1nc(CN(C)C(=O)NC2(C(=O)N[C@H](CC[C@H](Cc3ccccc3)NC(=O)OCc3cncs3)Cc3ccccc3)CCNCC2)cs1
